Several values for one entry are separate records, joined by “and”; a condition that tells them apart may be missing. Equal entries are not always repeated. Where two headings read alike, the source gives them in different places. Marks after values point to notes of the source that are not given here.
How the values were obtained:
[1] = test system: NIBRG-14 (H5N1) influenza A virus; design: species or system mice; conditions: mouse, in vivo
[2] = molecular target: NA from influenza virus A/Hanoi/30408/2005 (H5N1) (Influenza A virus (A/Hanoi/30408/2005(H5N1)), UniProt Q3C1C4); assay: biochemical
[3] = test system: flu (A/WSN/1933) infection, H1N1; assay: microbe, parasite or virus in culture; assay type: cell-based, influenza A/WSN/1933 (H1N1)
[4] = in vitro; conditions: dog
[5] = test system: influenza A [A/WSN/33 (H1N1)] virus; design: species or system mice; conditions: mouse, in vivo; for efficacy at lower concentrations in comparison to compounds 3 and 13b: 0.01 mg/kg/day
[6] = test system: A/WSN/33 (H1N1) influenza virus; conditions: mouse, in vivo
[7] = molecular target: Neuraminidase (NA) from influenza virus A/WSN/1933 (H1N1) (Influenza A virus, UniProt P03470); assay: biochemical; assay type: biochemical
Chain of Neuraminidase (NA) from influenza virus A/WSN/1933 (H1N1) (P03470 whole entry, looked up): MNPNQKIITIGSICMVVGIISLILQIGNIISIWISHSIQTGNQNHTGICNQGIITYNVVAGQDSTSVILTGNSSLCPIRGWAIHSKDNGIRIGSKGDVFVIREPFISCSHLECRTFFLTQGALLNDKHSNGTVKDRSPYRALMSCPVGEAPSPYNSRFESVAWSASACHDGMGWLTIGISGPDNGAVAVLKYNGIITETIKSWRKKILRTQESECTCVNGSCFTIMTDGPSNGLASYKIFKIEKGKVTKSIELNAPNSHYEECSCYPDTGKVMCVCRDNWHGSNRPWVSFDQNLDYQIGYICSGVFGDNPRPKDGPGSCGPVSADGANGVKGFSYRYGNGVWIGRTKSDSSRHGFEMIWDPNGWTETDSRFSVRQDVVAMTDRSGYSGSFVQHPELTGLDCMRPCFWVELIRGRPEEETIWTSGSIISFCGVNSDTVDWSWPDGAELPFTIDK

Compound: CCOC(=O)C1=C[C@@H](OC(CC)CC)[C@H](NC(C)=O)[C@@H](N)C1 [Compound 1, Ethyl (3R,4R,5S)-4-acetamido-5-amino-3-(1-ethylpropoxy)-1-cyclohexene-1-carboxylate phosphate, reference compound]
- % Survivors, day 7 ([1]; phosphate): 10 (100)^b % and 0 (40)^b % and 0 (0)^b %
- % Survivors, day 14 ([1]; phosphate): 10 (100)^b % and 0 (40)^b % and 0 (0)^b %
- Mean day to death ([1]; phosphate): 9.4 days and 7.6 days and 5.3 days

Compound: CCC(CC)O[C@@H]1C=C(C(=O)O)C[C@H](N)[C@H]1NC(C)=O [Compound 2, (3R,4R,5S)-4-Acetamido-5-amino-3-(1-ethylpropoxy)-1-cyclohexene-1-carboxylic acid, reference compound]
- IC50 [2]: 62.9 nM
- EC50 ([3]; read-out: EC50): 31.3 nM
- CC50 [4]: > 100000 nM

Compound: CCC(CC)O[C@@H]1C=C(P(=O)(O)O)C[C@H](N)[C@H]1NC(C)=O [Compound 3, Ammonium (3R,4R,5S)-4-acetamido-5-amino-3-(1-ethylpropoxy)-1-cyclohexene-1-phosphonate]
- IC50 [2]: 13.3 nM
- EC50 ([3]; Influenza A virus, MDCK): 4.67 nM
- % Survivors, day 7 [1]: 10 (100)^b % and 0 (60)^b % and 0 (0)^b %
- % Survivors, day 14 [1]: 10 (100)^b % and 0 (60)^b % and 0 (0)^b %
- Mean day to death [1]: 9.1 days and 8.7 days and 5.6 days and 5.7 days
- efficacy compared with Tamiflu by survival rate and mean survival time of mice [1]: at least equally effective
- Mean day to death [5]: 8.2 days and 5.9 days and 5.3 days
- efficacy compared with Tamiflu by survival rate and mean survival time of mice [6]: more effective than Tamiflu
- oral bioavailability in protecting mice against lethal challenge ([6]; po): orally bioavailable
- CC50 [4]: 74000 nM

Compound: CCOP(=O)(OCC)C1=C[C@@H](OC(CC)CC)[C@H](NC(C)=O)[C@@H](N)C1 [Compound 3b, Diethyl (3R,4R,5S)-4-acetamido-5-amino-3-(1-ethylpropoxy)-1-cyclohexene-1-phosphonate]
- % Survivors, day 7 [1]: 0 (100)^b % and 0 (20)^b % and 0 (0)^b %
- % Survivors, day 14 [1]: 0 (100)^b % and 0 (20)^b % and 0 (0)^b %
- Mean day to death [1]: 9.5 days and 7.3 days and 5.3 days and 4.9 days
- % Survivors, day 7 [6]: 0 (100)^b % and 0 (60)^b % and 0 (30)^b %
- % Survivors, day 14 [6]: 0 (100)^b % and 0 (60)^b % and 0 (30)^b %

Compound: CCOP(=O)(O)C1=C[C@@H](OC(CC)CC)[C@H](NC(C)=O)[C@@H](N)C1.N [Compound 3c, Ethyl (3R,4R,5S)-4-acetamido-5-amino-3-(1-ethylpropoxy)-1-cyclohexene-1-phosphonate ammonium salt]
- survival rate and body weight in comparison to compounds 3 and 13b [5]: improved survival rates and improved weight retention
- efficacy at lower concentrations in comparison to compounds 3 and 13b [5]: equally ineffective
- Mean day to death ([5]; ammonium salt): 9.3 days and 6.2 days and 4.8 days

Compound: CCC(CC)O[C@@H]1C=C(C(=O)O)C[C@H](NC(=N)N)[C@H]1NC(C)=O [Compound 13a, (3R,4R,5S)-4-acetamido-5-guanidinyl-3-(1-ethylpropoxy)-1-cyclohexene-1-carboxylic acid, reference compound]
- IC50 [2]: 160 nM
- EC50 ([3]; Influenza A virus, MDCK): 5.6 nM
- CC50 [4]: > 100000 nM

Compound: CCC(CC)O[C@@H]1C=C(P(=O)(O)O)C[C@H](NC(=N)N)[C@H]1NC(C)=O [Compound 13b, Ammonium (3R,4R,5S)-4-acetamido-5-guanidinyl-3-(1-ethylpropoxy)-1-cyclohexene-1-phosphonate]
- IC50 [2]: 1.82 nM
- EC50 ([3]; Influenza A virus, MDCK): 0.09 nM
- CC50 [4]: ~5000 nM

Compound: CCOP(=O)(O)C1=C[C@@H](OC(CC)CC)[C@H](NC(C)=O)[C@@H](NC(=N)N)C1.N [Compound 13c, Ethyl (3R,4R,5S)-4-acetamido-5-guanidinyl-3-(1-ethylpropoxy)-1-cyclohexene-1-phosphonate ammonium salt]
- survival rate and body weight in comparison to compounds 3 and 13b [5]: improved survival rates and improved weight retention
- efficacy at lower concentrations in comparison to compounds 3 and 13b [5]: equally ineffective
- Mean day to death ([5]; ammonium salt): 6.8 days and 5.7 days

Compound: CC(=O)N[C@H]1[C@H](O)C=C(C(=O)O)C[C@@H]1N [Compound 14a, (3R,4R,5S)-4-Acetamido-5-amino-3-hydroxy-1-cyclohexene-1-carboxylic acid, reference compound]
- IC50 [7]: 36700 nM
- NAI activity in comparison with 2 and 3 [7]: inferior NAI activity

Compound: CC(=O)N[C@H]1[C@H](O)C=C(P(=O)(O)O)C[C@@H]1N [Compound 14b, Ammonium (3R,4R,5S)-4-acetamido-5-amino-3-hydroxy-1-cyclohexene-1-phosphonate]
- IC50 [7]: 3200 nM
- NAI activity in comparison with 2 and 3 [7]: inferior NAI activity

From US7888337B2 (priority 2007, dated 2011)
